Results on 9 compounds are retold here after ChEMBL document CHEMBL5331050, “Spiro[benzoxazine-piperidin]-one derivatives as chitin synthase inhibitors and antifungal agents: Design, synthesis and biological evaluation” (Eur J Med Chem, 2022).

Structures are written as SMILES. pIC50: −log10 of the molar value. Values after ≈ are worked out from the molar mass of the structure shown. *1 amine or outer side, *2 acyl side, *3 side chain or, on linkers, in order; H or OH if unused. Where a SMILES comes first, the peptide text is derived from it. Bridges are numbered along the chain shown (N, C = ends). [ ]: non-standard residue; d: D form. The star is where a group is joined. hTyr(3S-OH,4S-OH,3'-OSO3H) = N[C@H](C(=O)O)[C@H](O)[C@@H](O)c1ccc(O)c(OS(=O)(=O)O)c1; Orn(4R-OH,5R-OH) = O=C([C@H](C[C@@H](O)[C@@H](O)N[*:3])N[*:1])[*:2]; Pro(3S-OH,4S-Me) = C[C@H]1CN[C@H](C(=O)O)[C@H]1O; X1 = CCCCCOc1ccc(-c2cc(-c3ccc(C(=O)*)cc3)no2)cc1; Gln(3R-OH) = NC(=O)C[C@@H](O)[C@H](N)C(=O)O; Hyp = O=C(O)[C@@H]1C[C@@H](O)CN1

In assay [1] the test system is Aspergillus fumigatus. In words: Antifungal activity against Aspergillus fumigatus GIMCC 3.19 assessed as disruption of fungal wall by measuring fungal growth incubated for 24 hrs in the presence of sorbitol. The format is functional.
The test system of assay [2] is Cryptococcus neoformans. The assay is described as follows: Synergistic antifungal activity against Cryptococcus neoformans ATCC 208821 assessed as fractional inhibitory concentration index incubated for 24 hrs in the presence of fluconazole by broth dilution based checkerboard method. The assay is classed as functional.
Assay [3] can be described thus: Inhibition of Candida tropicalis ATCC 750 chitin synthase using UDP-GlcNAc as substrate incubated for 1 hrs by absorbance based assay.
Assay [4] deals with Aspergillus flavus. In words: Antifungal activity against Aspergillus flavus ATCC 16870 assessed as disruption of fungal wall by measuring fungal growth incubated for 24 hrs in the presence of sorbitol. The format is functional.
Assay [5] deals with Aspergillus fumigatus. In words: Synergistic antifungal activity against Aspergillus fumigatus GIMCC 3.19 assessed as fractional inhibitory concentration index incubated for 24 hrs in the presence of fluconazole by broth dilution based checkerboard method. The format is functional.
Assay [6] has as its system Aspergillus fumigatus. In words: Synergistic antifungal activity against Aspergillus fumigatus GIMCC 3.19 assessed as fungal growth inhibition incubated for 24 hrs in the presence of fluconazole by broth dilution based checkerboard method. The format is functional.
Assay [7] deals with Cryptococcus neoformans. The assay is described as follows: Synergistic antifungal activity against Cryptococcus neoformans ATCC 208821 assessed as fungal growth inhibition incubated for 24 hrs in the presence of fluconazole by broth dilution based checkerboard method. The assay is classed as functional.
In assay [8] the test system is Cryptococcus neoformans. The assay is described as follows: Antifungal activity against Cryptococcus neoformans ATCC 208821 assessed as disruption of fungal wall by measuring fungal growth incubated for 24 hrs in the presence of sorbitol. The format is functional.
The subject of assay [9] is Cryptococcus neoformans. The assay is described as follows: Antifungal activity against Cryptococcus neoformans ATCC 208821 assessed as fungal growth inhibition incubated for 24 hrs by CLSI protocol based broth microdilution method. The format is functional.
A further assay concerns Candida tropicalis. In words: Inhibition of Candida tropicalis ATCC 750 chitin synthase using UDP-GlcNAc as substrate at 300 ug/ml incubated for 1 hrs by absorbance based assay relative to control. As to conditions: dose 300.0 µg/ml.
In assay [10] the test system is Aspergillus flavus. The assay is described as follows: Synergistic antifungal activity against Aspergillus flavus ATCC 16870 assessed as fractional inhibitory concentration index incubated for 24 hrs in the presence of fluconazole by broth dilution based checkerboard method. The format is functional.
For assay [11], the system named is Candida albicans. In words: Synergistic antifungal activity against Candida albicans ATCC 76615 assessed as fungal growth inhibition incubated for 24 hrs in the presence of fluconazole by broth dilution based checkerboard method. The assay is classed as functional.
Assay [12] concerns Aspergillus flavus. In words: Synergistic antifungal activity against Aspergillus flavus ATCC 16870 assessed as fungal growth inhibition incubated for 24 hrs in the presence of fluconazole by broth dilution based checkerboard method. The assay is classed as functional.
In assay [13] the test system is Aspergillus flavus. The assay is described as follows: Antifungal activity against Aspergillus flavus ATCC 16870 assessed as fungal growth inhibition incubated for 24 hrs by CLSI protocol based broth microdilution method. The format is functional.
The subject of assay [14] is Candida albicans. In words: Antifungal activity against Candida albicans ATCC 76615 assessed as fungal growth inhibition incubated for 24 hrs by CLSI protocol based broth microdilution method. The assay is classed as functional.
Assay [15] deals with Candida albicans. The assay is described as follows: Synergistic antifungal activity against Candida albicans ATCC 76615 assessed as fractional inhibitory concentration index incubated for 24 hrs in the presence of fluconazole by broth dilution based checkerboard method. The format is functional.
Assay [16] concerns Aspergillus fumigatus. In words: Antifungal activity against Aspergillus fumigatus GIMCC 3.19 assessed as fungal growth inhibition incubated for 24 hrs by CLSI protocol based broth microdilution method. The format is functional.
Assay [17] has as its system Cryptococcus neoformans. In words: Antifungal activity against fluconazole-resistant Cryptococcus neoformans ATCC 208821R assessed as fungal growth inhibition. The assay is classed as functional.
The nature of assay [18]: Selectivity ratio of MIC for antifungal activity against Candida albicans ATCC 76615 assessed as disruption of fungal wall by measuring fungal growth incubated for 24 hrs in the presence of sorbitol to MIC for antifungal activity against Candida albicans ATCC 76615 assessed as fungal growth inhibition. The format is functional.
Assay [19] has as its system Candida albicans. In words: Antifungal activity against Candida albicans ATCC 76615 assessed as disruption of fungal wall by measuring fungal growth incubated for 24 hrs in the presence of sorbitol. The assay is classed as functional.
The subject of assay [20] is Candida albicans. In words: Antifungal activity against fluconazole-resistant Candida albicans ATCC 76615R assessed as fungal growth inhibition. The assay is classed as functional.
The subject of assay [21] is Candida albicans. In words: Antifungal activity against micafungin-resistant Candida albicans ATCC 76615R assessed as fungal growth inhibition. The format is functional.
Assay [22] can be described thus: Inhibition of chitin synthase (unknown origin). Also noted: species or system Fungi.

As for `COc1ccc2c(c1)C1(CCN(C(=O)/C=C/C(=O)Nc3ccc([N+](=O)[O-])cc3OC)CC1)OC(=O)N2`, the MIC with Aspergillus fumigatus [1] was 512 µg/mL; in the assay with Aspergillus flavus [4], more than 512 µg/mL; in the assay with Aspergillus fumigatus [6], 32 µg/mL; with Cryptococcus neoformans [7] it was 32 µg/mL; with Cryptococcus neoformans [8], more than 512 µg/mL; in the assay with Cryptococcus neoformans [9], 64 µg/mL (≈ 129 µM). The MIC in the assay on Candida albicans [11] was 16 µg/mL; in the assay with Aspergillus flavus [12], 16 µg/mL; in the assay with Aspergillus flavus [13], 42.7 µg/mL (≈ 85.9 µM); in the assay on Candida albicans [14], 128 µg/mL (≈ 258 µM); in the assay on Aspergillus fumigatus [16], 64 µg/mL (≈ 129 µM). The “fractional inhibitory concentration index (FICI)” value was 1 with Cryptococcus neoformans [2], 1.5 in the assay on Aspergillus fumigatus [5], 1.37 in the assay with Aspergillus flavus [10] and 1.13 in the assay on Candida albicans [15]. In addition, the pIC50 in [3] was 4.00. The same compound registered an inhibition in the assay with Candida tropicalis of 86%.

With `COc1ccc(NC(=O)/C=C/C(=O)N2CCC3(CC2)OC(=O)Nc2ccc(OC)cc23)cc1`, the “fractional inhibitory concentration index (FICI)” value with Cryptococcus neoformans [2] was determined as 0.625; in the assay with Aspergillus fumigatus [5], 1.125; with Aspergillus flavus [10], 3; with Candida albicans [15] it was 1.1. This compound gave a pIC50 in assay [3] of 3.68. Moreover, the MIC in the assay with Aspergillus fumigatus [6] came to 26 µg/mL; in the assay on Cryptococcus neoformans [7], 32 µg/mL; in the assay on Cryptococcus neoformans [9], 256 µg/mL (≈ 567 µM); with Candida albicans [11], 6.67 µg/mL; with Aspergillus flavus [12], 128 µg/mL; in the assay on Aspergillus flavus [13], 64 µg/mL (≈ 142 µM). Moreover, the MIC with Candida albicans [14] amounted to 64 µg/mL (≈ 142 µM); in the assay with Aspergillus fumigatus [16], 128 µg/mL (≈ 284 µM). In addition, in the assay with Candida tropicalis, the inhibition came to 82%.

For the compound `COc1cc(Br)c(NC(=O)/C=C/C(=O)N2CCC3(CC2)OC(=O)Nc2ccc(OC)cc23)c(Br)c1`, the MIC in the assay with Cryptococcus neoformans [17] was found to be 64 µg/mL (≈ 105 µM); in the assay with Candida albicans [19] it was 512 µg/mL; in the assay on Candida albicans [20], 64 µg/mL (≈ 105 µM); with Candida albicans [21] it was 64 µg/mL (≈ 105 µM); with Cryptococcus neoformans [8] it was 512 µg/mL; in the assay with Cryptococcus neoformans [9], 64 µg/mL (≈ 105 µM). In addition, the MIC in the assay with Aspergillus flavus [13] turned out to be 256 µg/mL (≈ 420 µM); with Candida albicans [14], 64 µg/mL (≈ 105 µM); with Aspergillus fumigatus [16], 128 µg/mL (≈ 210 µM). The pIC50 in [3] is 3.96. Also, in assay [18], the Ratio came out at 8. Moreover, in the assay with Candida tropicalis, the inhibition turned out to be 72%.

On to `COc1ccc2c(c1)C1(CCN(C(=O)/C=C/C(=O)Nc3ccc(Br)cc3)CC1)OC(=O)N2`, for which the MIC in the assay with Cryptococcus neoformans [17] came to 53.3 µg/mL (≈ 107 µM); in the assay with Aspergillus fumigatus [1], 512 µg/mL; with Aspergillus flavus [4], 256 µg/mL; in the assay with Candida albicans [19] it was 256 µg/mL; with Candida albicans [20], 32 µg/mL (≈ 64 µM); in the assay with Aspergillus fumigatus [6], 32 µg/mL. For the same compound, the MIC turned out to be 32 µg/mL with Cryptococcus neoformans [7]; 32 µg/mL (≈ 64 µM) in the assay with Candida albicans [21]; 256 µg/mL in the assay with Cryptococcus neoformans [8]; 64 µg/mL (≈ 128 µM) with Cryptococcus neoformans [9]; 16 µg/mL with Candida albicans [11]; 53.3 µg/mL with Aspergillus flavus [12]. For the same compound, the results for the minimum inhibitory concentration (MIC) in the assay with Aspergillus flavus [13], in the assay with Candida albicans [14] and with Aspergillus fumigatus [16] were 32 µg/mL (≈ 64 µM), 26.7 µg/mL (≈ 53.3 µM) and 64 µg/mL (≈ 128 µM), respectively. In addition, the “fractional inhibitory concentration index (FICI)” value with Cryptococcus neoformans [2] is 1; in the assay with Aspergillus fumigatus [5], 1.25; in the assay with Aspergillus flavus [10], 3.67; with Candida albicans [15] it was 0.85. For the same compound, the pIC50 in [3] was 3.85. For the same compound, the Ratio in assay [18] stood at 8. In the assay with Candida tropicalis, this compound came in with an inhibition of 83%.

Turning to `COc1ccc2c(c1)C1(CCN(C(=O)/C=C/C(=O)Nc3ccc(F)c(Cl)c3)CC1)OC(=O)N2`, the MIC is 64 µg/mL (≈ 135 µM) with Cryptococcus neoformans [17]; 53.3 µg/mL (≈ 113 µM) in the assay with Candida albicans [20]; 8 µg/mL with Aspergillus fumigatus [6]; 32 µg/mL with Cryptococcus neoformans [7]; 64 µg/mL (≈ 135 µM) in the assay with Candida albicans [21]; 64 µg/mL (≈ 135 µM) in the assay on Cryptococcus neoformans [9]. Further, the minimum inhibitory concentration (MIC) in the assay with Candida albicans [11] was 64 µg/mL; in the assay on Aspergillus flavus [12], 64 µg/mL; in the assay with Aspergillus flavus [13], 16 µg/mL (≈ 33.8 µM); in the assay with Candida albicans [14], 64 µg/mL (≈ 135 µM); with Aspergillus fumigatus [16], 16 µg/mL (≈ 33.8 µM). Further, the “fractional inhibitory concentration index (FICI)” value is 0.625 with Cryptococcus neoformans [2], 0.75 in the assay with Aspergillus fumigatus [5], 1.125 with Aspergillus flavus [10] and 2 in the assay on Candida albicans [15]. The pIC50 in assay [3] is 3.80. Further, the inhibition with Candida tropicalis turned out to be 70%.

`O=C(/C=C/C(=O)N1CCCC12Cc1ccccc1NC2=O)Nc1cccc([N+](=O)[O-])c1` (configuration not stated) gave a pIC50 in [22] of 4.00.

With `NC(=O)OC[C@H](O)[C@@H](O)[C@H](N)C(=O)N[C@H](C(=O)O)[C@H]1O[C@@H](n2cc(CO)c(=O)[nH]c2=O)[C@H](O)[C@@H]1O` [POLYOXIN B], the MIC in the assay with Aspergillus fumigatus [1] was 512 µg/mL; in the assay with Aspergillus flavus [4] it was more than 512 µg/mL; in the assay on Candida albicans [19], 512 µg/mL; with Cryptococcus neoformans [8] it was more than 512 µg/mL; with Cryptococcus neoformans [9], 64 µg/mL (≈ 126 µM); in the assay on Aspergillus flavus [13], 64 µg/mL (≈ 126 µM). The MIC with Candida albicans [14] came to 64 µg/mL (≈ 126 µM); in the assay with Aspergillus fumigatus [16], 32 µg/mL (≈ 63.1 µM). Also, the pIC50 in assay [3] is 4.10. This compound also displayed an inhibition in the assay on Candida tropicalis of 85%.

Take `CCCCCOc1ccc(-c2cc(-c3ccc(C(=O)N[C@H]4C[C@@H](O)[C@@H](O)NC(=O)[C@@H]5[C@@H](O)[C@@H](C)CN5C(=O)[C@H]([C@H](O)CC(N)=O)NC(=O)[C@H]([C@H](O)[C@@H](O)c5ccc(O)c(OS(=O)(=O)O)c5)NC(=O)[C@@H]5C[C@@H](O)CN5C(=O)[C@H]([C@@H](C)O)NC4=O)cc3)no2)cc1` [MICAFUNGIN] (X1-[Orn(4R-OH,5R-OH)]T[Hyp][hTyr(3S-OH,4S-OH,3'-OSO3H)][Gln(3R-OH)][Pro(3S-OH,4S-Me)]; lactam 1-C): the MIC in the assay with Candida albicans [21] is 256 µg/mL (≈ 202 µM); in the assay on Cryptococcus neoformans [9] it was more than 512 µg/mL; in the assay with Candida albicans [14] it was 0.063 µg/mL (≈ 0.0496 µM).

For `Cc1cccc(NC(=O)/C=C/C(=O)NC2Cc3ccccc3NC2=O)c1` (configuration not stated), in [22], the negative logarithm of the IC50 (pIC50) was 4.05.
